“Also recorded” adds a separate entry of the source. Counter-ions that a name gives are not always drawn.
Columns and labels:
[1] = system: CSPG production by astrocytes; experiment: Western blot of astrocyte conditioned medium, MAB2030 (chondroitin sulfate GAG stubs); format: cell-based, mouse; conditions: astrocyte conditioned media, 50 μM, 48 hours
From the text: Astrocytes are major producers of CSPGs following injury in the CNS [Jones, L. L., Margolis, R. U. & Tuszynski, M. H. The chondroitin sulfate proteoglycans neurocan, brevican, phosphacan, and versican are differentially regulated following spinal cord injury. Experimental Neurology 182, 399-411 (2003); Tang, X., Davies, J. E. & Davies, S. J. Changes in distribution, cell associations, and protein expression levels of NG2, neurocan, phosphacan, brevican, versican V2, and tenascin-C during acute to chronic maturation of spinal cord scar tissue. […] The Journal of neuroscience: the official journal of the Society for Neuroscience 20, 2427-2438 (2000); McKeon, R. J., Jurynec, M. J. & Buck, C. R. The chondroitin sulfate proteoglycans neurocan and phosphacan are expressed by reactive astrocytes in the chronic CNS glial scar. The Journal of neuroscience: the official journal of the Society for Neuroscience 19, 10778-10788 (1999); Haas, C. A., Rauch, U., Thon, N., Merten, T. & Deller, T. Entorhinal cortex lesion in adult rats induces the expression of the neuronal chondroitin sulfate proteoglycan neurocan in reactive astrocytes. The Journal of neuroscience: the official journal of the Society for Neuroscience 19, 9953-9963 (1999)] and they may help drive progression of disability in a model of progressive MS [Mayo, L. et al. Regulation of astrocyte activation by glycolipids drives chronic CNS inflammation. Nature medicine 20, 1147-1156 (2014)]. Therefore astrocytes were used as model cells to determine the ability of the sugar analogs to reduce synthesis of CSPGs. Since CSPGs are exported out of cells, the conditioned media from analog-treated astrocytes were probed by Western blots (FIG. 4). We used antibodies to both the stubs of chondroitin sulfate GAGs attached to the core protein (MAB2030) and to intact 4-sulfated chondroitin sulfate sidechains (2H6) (FIG. 4a). Particularly, we used the 2H6 antibody to label intact 4-sulfated chondroitin sulfate sidechains, and the MAB2030 antibody to detect the stubs of chondroitin sulfate GAGs attached to the core protein. […] 1998, 160 (8), 3812-3819. Poole Poole C. A.; Glant T. T.; Schofield J. R.; Chondrons from articular cartilage. (IV). Immunolocalization of proteoglycan epitopes in isolated canine tibial chondrons. J. Histochem. Cytochem. 1991, 39 (9), 1175-1187].
Astrocytes were plated in uncoated 6-well plates (3 replicate wells per treatment) at 1×10^6 cells/well in mixed glial media, and incubated at 5% CO2 and 37° C. Astrocytes were treated with compounds at 50 μM in AIM-V media for 48 hours. Media was pooled from 3 replicate wells in 15 ml 100K cutoff centricon tubes (EMD Millipore, #UFC905008), which were spun on an ultracentrifuge at 5000× g for 2 cycles of 10 minutes each. When harvested, the cell lysate was kept on ice for 5 minutes with 250 μL of RIPA buffer (ThermoFisher Scientific #89900) containing proteinase inhibitor, and then collected and centrifuged at 14000 g for 5 minutes. Total protein was quantified using a Bradford assay. Conditioned media that were to be probed for chondroitin 4-sulfate GAGs (Millipore, #MAB2030) were first digested with 0.2 U/ml chondroitinase ABC for overnight at 37° C. to remove chondroitin sulfate sidechains. Blots that were to be probed with CSA (2H6, Cosmo) or CS56 (Abcam #ab11570) were not exposed to chondroitinase ABC. Samples were heat denatured with NuPAGE® LDS Sample buffer at 70° C. for 10 minutes and then loaded into 3-8% tris-acetate pre-cast gels (ThermoFisher, #EA0478BOX). The gels were electrophoresed at a constant 150 V for 90 minutes and transferred to a […] polyvinylidene fluoride membrane at a constant 250 mA for 60 minutes. The membranes were blocked for one hour with 10% skim milk in Tris-buffered saline (TBS; 0.9% NaCl, 10 mM Tris-HCl, pH 7.5) containing 0.5% Tween 20 (TBS-T). Primary antibodies were added in 3% skim milk and incubated overnight at 4° C. […]

[2] = system: TNFα; experiment: TNFα ELISA of LPS-stimulated bone marrow-derived macrophages; format: cell-based, mouse; conditions: BMDMs, 50 μM, LPS 100 ng/ml, 24 hours
Procedure: Multiple Sclerosis: Mechanisms and Immunotherapy. Neuron 97, 742-768 (2018)]. It was tested whether the sugar analogs could affect the activity of macrophages, using bone marrow-derived macrophages (BMDMs) stimulated with lipopolysaccharide (LPS, 100 ng/ml). The sugar analogs were added at 50 μM prior to LPS, and the conditioned medium was collected after 24 hours and assayed for levels of the secreted cytokine TNFα. […] Testing Toxicity of Sugar Analogs
Femurs were carefully removed from euthanized female C57BI/6 mice, and marrow was flushed into a culture plate with cold complete bone marrow growth medium (DMEM, 10% fetal bovine serum, and the supplements 1% penicillin/streptomycin, 1% glutamine, 1% non-essential amino acids, and 10% supernatant from L929 cell-line enriched in macrophage-colony stimulating factor). Cells were spun at 1100 rpm for 10 minutes, resuspended in fresh growth medium and plated at 10×10^6 cells/ml in a 10 cm culture dish. Cells were grown in DMEM with supplements and L929 supernatant for 5 days, then half the medium was replaced with fresh growth medium. On day 7 growth medium was replaced with DMEM with 10% FBS and supplements. Cells were used on day 8, and experiments were conducted in DMEM with 1% FBS and supplements unless otherwise specified.
BMDM were plated at 25,000 cells in 96-well plates in DMEM+L929 media. After 24 hours media was changed to DMEM+1% FBS. One hour later, cells were treated with […] compounds or PBS. After 1 hour LPS (final concentration 100 ng/ml) was added. Following 24 hours, conditioned media was harvested for TNFα ELISA (Thermo Scientific), which was performed according to manufacturer's instructions.

[3] = system: oligodendrocyte precursor cells (OPCs); experiment: Growth of OPCs on astrocyte-secreted extracellular matrix; format: cell-based, mouse; conditions: astrocytes treated 48 hours, then removed; OPCs plated on matrix
From the text: The process of remyelination requires oligodendrocyte lineage cells to undergo process outgrowth prior to their expression of mature myelin proteins for repair. Thus, process outgrowth in culture by cells of the oligodendrocyte lineage has been used as one surrogate for myelinating potential in vivo [Keough, M. B.; Rogers, J. A.; Zhang, P.; Jensen, S. K.; Stephenson, E. L.; Chen, T.; Hurlbert, M. G.; Lau, L. W.; Rawji, K. S.; Plemel, J. R. et al. An inhibitor of chondroitin sulfate proteoglycan synthesis promotes central nervous system remyelination. Nat. Commun. 2016, 7, 11312], since an oligodendrocyte needs to elaborate multiple protrusions emanating in several directions to contact many axons, and where these processes then compact around axons to form myelin segments. The presence of CSPGs in culture impairs the process outgrowth of OPCs, and this has been linked to reduced remyelination capacity in vivo [Keough, M. B.; Rogers, J. A.; Zhang, P.; Jensen, S. K.; Stephenson, E. L.; Chen, T.; Hurlbert, M. G.; Lau, L. W.; Rawji, K. S.; Plemel, J. R. et al. An inhibitor of chondroitin sulfate proteoglycan synthesis promotes central nervous system remyelination. Nat. Commun. 2016, 7, 11312]. It was reported previously that astrocytes in culture produce a plate-bound matrix abundant in CSPGs, that is left behind once astrocytes are removed from the plate, and this CSPG-containing matrix inhibits the outgrowth of plated OPCs [Keough, M. B. et al. An inhibitor of chondroitin sulfate proteoglycan synthesis promotes central nervous system remyelination. Nature communications 7, 11312 (2016)] (FIG. 7a). Thus, astrocytes were treated with test compounds for 48 hours and they were then removed from the cell culture plate leaving only their secreted ECM behind (FIG. 7a). When OPCs were plated on the astrocyte matrix, the extent of their process outgrowth over […] of observation was inhibited (FIG. 7b). […] OPCs growing in the absence of astrocyte ECM can reach a mean outgrowth around 300 μm (FIG. 7b,c). […] These compounds were: Ac-4,4-diF-GlcNAc 16 (Ac-4,4-diF-GlcNAc), fluorosamine 3 and its O1-deacetylated analog 10 (Ac-4-F-GlcNAcOH), anomeric O-propanoate 7, anomeric O-butanoate 8 (Ac-4-F-GlcNAcOBu), and the 4-fluorinated GalNAc derivative 13 (Ac-4-F-GalNAc) (FIG. 7c).
In brief, cortices from postnatal days 1-3 mouse brains were dissociated with papain digestion and then plated as a mixed culture for 7 days in a 37° C. incubator at 8.5% CO2 whereupon OPCs and microglia tended to be loosely attached on top of a monolayer of astrocytes; the OPCs and microglia were then shaken off when placed on an orbital shaker at 220 r.p.m. at 37° C. and 5% CO2 overnight. The media containing microglia and OPCs were collected and added to a 100 mm tissue culture dish and left at 37° C. and 5% CO2 for 30 min, to allow preferential adhesion of microglia. The media were collected again, now containing OPCs, and used as the OPC-enriched isolates for experiments. For the remaining adhered cells, largely astrocytes, these were removed with 0.25% trypsin and after centrifugation and washing, these astrocytes were plated at a density of 1.0×10^5 cells in flat bottom 96-well plates coated with 10 μg/ml poly-L-lysine. Cells were grown for 7 days at 37° C. and 5% CO2 in MGM and daily media changes. Astrocytes were carefully removed with EDTA treatment (0.2 g EDTA (Na4) per liter PBS, 30 minutes at 37° C. and 5% CO2) and mechanical dislodgement with a micropipetter. The remaining ECM left behind was covered with PBS at 4° C. until OPCs were seeded. Enriched OPCs from mixed glial cultures were seeded at a density of 5-10×10^4 cells per well in OPC media and grown at 37° C. and 8.5% CO2 for 18-24 h and then were fixed with 4% ice-cold paraformaldehyde at 4° C. for 10 min, rinsed with PBS, and stored at 4° C. until immunocytochemistry. […]

[4] = system: mouse astrocytes; experiment: Propidium iodide/calcein AM toxicity on astrocytes; format: cell-based; conditions: 100 μM, 48 hours
Procedure: Toxicity on astrocytes was assayed with propidium iodide/calcein AM […]. Live cells convert calcein AM into a green fluorescent product, whereas dying/dead cells are stained with propidium iodide.
96-well plates were imaged with ImageXpress® Micro Cellular Imaging and Analysis System (Molecular Devices, Sunnyvale, CA). Twelve images per well were collected at ×10 magnification. Images were processed with MetaXpress analysis software. OPC outgrowth was calculated by the MetaExpress® “neurite outgrowth” software module which uses fluorescence and user-modified parameters to document the overall extent of processes emanating from the cell soma, regardless of size of the protrusions or the number of branches. This was previously detailed elsewhere [Cua, R. C.; Lau, L. W.; Keough, M. B.; Midha, R.; Apte, S. S.; and Yong, V. W. Overcoming neurite-inhibitory chondroitin sulfate proteoglycans in the astrocyte matrix. Glia 2013, 61 (6), 972-84]. Live-dead cell assay was calculated with MetaXpress analysis software with the “multiwavelength cell scoring”, which uses fluorescent intensity to measure co-localization of calcein AM, propidium iodide, and […]. Data from the 12 images were averaged to a single data point per well, wherein the OPC outgrowth data calculated from the MetaExpress® “neurite outgrowth” readout was divided by data from the same 12 fields of cell number that was acquired through the multiwavelength cell scoring. This provided mean outgrowth per cell per well, with four well replicates per treatment. Experiments were repeated at least twice.
A mixture was created containing propidium iodide (10 μg/ml) to stain dead cells, 10 μM Calcein AM (ThermoFisher, #C3100MP) to identify live cells, and 2 drops per ml of media of NucBlue™ Live ReadyProbes™ Reagent (ThermoFisher, #R37605) to identify nuclei. The mixture was added to plate media and incubated for 20-30 minutes at 37° C. and 5% CO2 before imaging. Excitation/emission of calcein-AM (λex 490 nm, λem 515 nm), propidium iodide (λex 535 nm, λem 617 nm), and nuclear blue (λex 350 nm, λem 461 nm) was performed using ImageXpress® Micro Cellular Imaging and Analysis System (Molecular Devices, Sunnyvale, CA) and analyzed by MetaExpress multiwavelength cell scoring program.

Structure (SMILES)	effect on CSPG production by astrocytes [1]	TNFα production by LPS-stimulated macrophages [2]	mean process outgrowth of OPCs on astrocyte ECM [3]	effect on CSPG production by astrocytes ([1]; sodium salt)	toxicity on astrocytes (propidium iodide/calcein AM) [4]
CC(=O)O[C@H]1OC[C@@H](F)[C@H](OC(C)=O)[C@H]1OC(C)=O [Compound 27, 1,2,3-Tri-O-acetyl-4-deoxy-4-fluoro-α-D-xylopyranose]	did not reduce CSPG production	enhanced TNFα levels			
CC(=O)NC1C(OC(C)=O)OC(C(F)F)[C@@H](OC(C)=O)C1OC(C)=O (stereo in doubt) [Compound 18, 2-acetamido-1,3,4-tri-O-acetyl-2,6-dideoxy-6,6-difluoro-α/β-D-glucopyranose]	did not decrease CSPG production in astrocytes		significantly enhanced OPC outgrowth		
CC(=O)O[C@@H]1[C@@H](OC(C)=O)[C@H](OCCCCCCS(=O)(=O)O)OC[C@H]1OC(C)=O [Compound 23, 6-Sulfohexyl 2,3,4-tri-O-acetyl-β-D-xylopyranoside, sodium salt]			significantly enhanced OPC outgrowth	CSPG production was not impacted; also recorded: did not decrease CSPG production in astrocytes	
OO [Compound H2O2, reference compound]					caused a significant increase in toxicity; also recorded: caused increase in propidium iodide-positive staining
